{"source": "paper PMC8776995", "about": "(Frontiers in Chemistry, 2022)", "type_in_all_cases": "cell-based, human", "key": {"[1]": {"tested_on": "H460 cells", "experiment": "Annexin V/PI flow cytometry for cell apoptosis, H460", "conditions": "for Percentage of apoptosis, Average: average of three runs; for Q2+Q3 / Lymphocytes/Q2: FITC-A+ , PI-A+ Freq. of Parent / Lymphocytes/Q3: FITC-A+ , PI-A- Freq. of Parent / Percentage of apoptosis: single runs; for Q2+Q3: given as fraction; for Lymphocytes/Q2: FITC-A+ , PI-A+ Freq. of Parent / Lymphocytes/Q3: FITC-A+ , PI-A- Freq. of Parent / Percentage of apoptosis: time as in file name (24h, 48h or not given)", "method": "To establish whether the antiproliferative efficacy is associated with apoptosis, PC-9 and H460 cells were treated with compound e4 or e12 of various concentrations (4, 8 and 12 μM) for 48 h, and then assessed with flow cytometry.\nCell-apoptosis analysis was carried out by flow cytometry using the Annexin V/PI apoptosis kit according to the manufacturer’s manual. Briefly, PC-9 or H460 (3 × 10^4–5 × 10^4/well) cells were seeded in 12-well plates for 24 h, and then treated with 0.1% DMSO (as control) or various concentrations of compound e4 or e12 for 48 h, respectively. Cells were harvested, washed with PBS, and then incubated with 100ul of 1X Annexin V binding buffer containing 1 μl PI and 1 μl FITC Annexin V for 15 min at RT in the dark. 200 µl of 1X binding buffer were added to each tube for flow cytometry analysis (BD LSRFortessa™ Flow Cytometer). The percentages of apoptotic cells were analyzed using FlowJo soft."}, "[2]": {"tested_on": "H460 cells", "experiment": "Flow cytometry detection for cell cycle, H460", "conditions": "for G0/G1 / G2/M / S: single experiments (20200711, 20200810, 20200812)", "method": "To investigate the effects of compounds e4 and e12 on various phases of the cell cycle, PC-9 cells were treated with compound e4 or e12 of various concentrations for 24 h, and H460 cells were treated with compound e4 or e12 of various concentrations for 12 h.\nPC-9 or H460 (2 × 10^5–3 × 10^5/well) cells were seeded in six-well plates for 24 h, and then treated with 0.1% DMSO (as control), various concentrations of either compound e4 or e12 for 24 h (PC-9) or 12 h (H460), respectively. The treated cells were harvested, washed with PBS, and then stained using the cell-cycle staining kit according to the manufacturer’s manual. The distribution of cell-cycle phases with different DNA contents was determined by flow cytometry (BD LSRFortessa™ Flow Cytometer) and analyzed using ModFit LT software."}, "[3]": {"tested_on": "CCND1, CCNA2, CCNB1, CDK2, CDK6 RNA in PC-9 cells", "experiment": "qPCR assay for cell cycle-related gene analysis", "conditions": "for CCNB relative mRNA expression (2^-ddCt vs NC, normalised to beta-Actin) / CCND1 relative mRNA expression (2^-ddCt vs NC, normalised to beta-Actin) / CDK6 relative mRNA expression (2^-ddCt vs NC, normalised to beta-Actin): qPCR SYBR_GREEN, NC = 1; for RQ: endogenous control b-Actin, reference sample NC", "source_text": "To better understand the mechanisms underlying cell cycle arrest induced by e4 and e12 in NSCLC cells, we assessed the expression levels of a few genes involved in cell cycle regulation, including cyclin D1 (CCND1), cyclin A2 (CCNA2), cyclin B1 (CCNB1), cyclin-dependent kinase 2 (CDK2), and cyclin-dependent kinase 6 (CDK6) in PC-9 by qPCR. […] CCNA2 is known to bind and activate CDK2 and thus promotes the transition through G1/S and G2/M. CCNB1 and CCND1 are essential to mitosis and G1/S transition respectively. While G2/M arrest weas not detected, the changes in these gene expression profiles interpret the G1/S arrests in PC-9 cells treated with e4 and e12. PC-9 cells exposed to the compounds for various periods should be examined further.\nTotal RNA of cells was extracted and cDNA was synthesized. The primers for the target products were designed as in Table 3."}, "[4]": {"conditions": "4uM, Repeat 1-3, relative to NC = 1"}, "[5]": {"conditions": "8uM, Repeat 1-3, relative to NC = 1"}, "[6]": {"conditions": "12uM, Repeat 1-3, relative to NC = 1"}}, "note": "“And” between values parts separate entries of the source, which are not always exact repeats. Equal entries are not always repeated."}
{"smiles": "COCCOc1cc2ncnc(Nc3cccc(-c4cn(Cc5cc(Br)cc(Br)c5)nn4)c3)c2cc1OCCOC", "note": "[e4, [6,7-Bis-(2-methoxy-ethoxy)-quinazolin-4-yl]-{3-[1-(3,5-dibromo-benzyl)-1H-[1,2,3]triazol-4-yl]-phenyl}-amine]", "values": [{"measurement": "Percentage of apoptosis, Average", "setting": "[1]; H460, 4uM", "value": 9.783, "unit": "%"}, {"measurement": "Q2+Q3", "setting": "[1]; H460, 4uM", "value": "0.1032 and 0.0852 and 0.1051"}, {"measurement": "Lymphocytes/Q2: FITC-A+ , PI-A+ Freq. of Parent", "setting": "[1]; H460, 4uM", "value": "5.85% and 4.70% and 6.80%"}, {"measurement": "Lymphocytes/Q3: FITC-A+ , PI-A- Freq. of Parent", "setting": "[1]; H460, 4uM", "value": "4.47% and 3.82% and 3.71%"}, {"measurement": "Percentage of apoptosis", "setting": "[1]; H460, 4uM", "value": "10.32% and 8.52% and 10.51%"}, {"measurement": "Percentage of apoptosis, Average", "setting": "[1]; H460, 8uM", "value": 47.9767, "unit": "%"}, {"measurement": "Q2+Q3", "setting": "[1]; H460, 8uM", "value": "0.4733 and 0.459 and 0.507"}, {"measurement": "Lymphocytes/Q2: FITC-A+ , PI-A+ Freq. of Parent", "setting": "[1]; H460, 8uM", "value": "41.3% and 35.4% and 44.0%"}, {"measurement": "Lymphocytes/Q3: FITC-A+ , PI-A- Freq. of Parent", "setting": "[1]; H460, 8uM", "value": "6.03% and 10.5% and 6.70%"}, {"measurement": "Percentage of apoptosis", "setting": "[1]; H460, 8uM", "value": "47.33% and 45.9% and 50.7%"}, {"measurement": "Percentage of apoptosis, Average", "setting": "[1]; H460, 12uM", "value": 72.3733, "unit": "%"}, {"measurement": "Q2+Q3", "setting": "[1]; H460, 12uM", "value": "0.7923 and 0.7087 and 0.6702"}, {"measurement": "Lymphocytes/Q2: FITC-A+ , PI-A+ Freq. of Parent", "setting": "[1]; H460, 12uM", "value": "74.3% and 67.3% and 60.8%"}, {"measurement": "Lymphocytes/Q3: FITC-A+ , PI-A- Freq. of Parent", "setting": "[1]; H460, 12uM", "value": "4.93% and 3.57% and 6.22%"}, {"measurement": "Percentage of apoptosis", "setting": "[1]; H460, 12uM", "value": "79.23% and 70.87% and 67.02%"}, {"measurement": "cell apoptosis (flow cytometry)", "setting": "[1]; H460, 4, 8 and 12 μM, 48 h", "value": "significant cell apoptosis"}, {"measurement": "G0/G1", "setting": "[2]; H460, 4uM", "value": "42.32% and 41.29% and 53.43%"}, {"measurement": "G2/M", "setting": "[2]; H460, 4uM", "value": "16.95% and 17.5% and 12.27%"}, {"measurement": "S", "setting": "[2]; H460, 4uM", "value": "40.73% and 41.21% and 34.3%"}, {"measurement": "G0/G1", "setting": "[2]; H460, 8uM", "value": "48.11% and 44.75% and 59.66%"}, {"measurement": "G2/M", "setting": "[2]; H460, 8uM", "value": "16.79% and 18.81% and 11.77%"}, {"measurement": "S", "setting": "[2]; H460, 8uM", "value": "35.11% and 36.45% and 28.56%"}, {"measurement": "G0/G1", "setting": "[2]; H460, 12uM", "value": "48.29% and 43.3% and 54.65%"}, {"measurement": "G2/M", "setting": "[2]; H460, 12uM", "value": "17.85% and 18.86% and 13.72%"}, {"measurement": "S", "setting": "[2]; H460, 12uM", "value": "33.86% and 38.02% and 31.63%"}, {"measurement": "percentage of cells in the G0/G1 phase", "setting": "[2]; H460, various concentrations, 12 h", "value": "induced higher percentages"}, {"measurement": "CCNB relative mRNA expression (2^-ddCt vs NC, normalised to beta-Actin)", "setting": "[3]; 4uM", "value": 0.8081}, {"measurement": "CCNB relative mRNA expression (2^-ddCt vs NC, normalised to beta-Actin)", "setting": "[3]; 8uM", "value": 0.7848}, {"measurement": "CCND1 relative mRNA expression (2^-ddCt vs NC, normalised to beta-Actin)", "setting": "[3]; 8uM", "value": 0.7172}, {"measurement": "CDK6 relative mRNA expression (2^-ddCt vs NC, normalised to beta-Actin)", "setting": "[3]; 8uM", "value": 0.824}, {"measurement": "CCNB relative mRNA expression (2^-ddCt vs NC, normalised to beta-Actin)", "setting": "[3]; 12uM", "value": 0.736}, {"measurement": "CCND1 relative mRNA expression (2^-ddCt vs NC, normalised to beta-Actin)", "setting": "[3]; 12uM", "value": 0.6074}, {"measurement": "CDK6 relative mRNA expression (2^-ddCt vs NC, normalised to beta-Actin)", "setting": "[3]; 12uM", "value": 1.051}, {"measurement": "RQ", "setting": "[3]; CCNA mRNA, 4uM", "value": 0.764}, {"measurement": "RQ", "setting": "[3]; CCNA mRNA, 8uM", "value": 0.7042}, {"measurement": "RQ", "setting": "[3]; CCNA mRNA, 12uM", "value": 0.7817}, {"measurement": "2^ΔΔCт CCNA", "setting": "[3]; [4]", "value": "0.7613 and 0.8165 and 0.764"}, {"measurement": "2^ΔΔCт CCNA", "setting": "[3]; [5]", "value": "0.7109 and 0.778 and 0.7042"}, {"measurement": "2^ΔΔCт CCNA", "setting": "[3]; [6]", "value": "0.5857 and 0.5446 and 0.7817"}, {"measurement": "RQ", "setting": "[3]; CCNB mRNA, 4uM", "value": 0.9138}, {"measurement": "RQ", "setting": "[3]; CCNB mRNA, 8uM", "value": 0.7783}, {"measurement": "RQ", "setting": "[3]; CCNB mRNA, 12uM", "value": 1.003}, {"measurement": "2^ΔΔCт CCNB", "setting": "[3]; [4]", "value": "0.8081 and 0.8617 and 0.9138"}, {"measurement": "2^ΔΔCт CCNB", "setting": "[3]; [5]", "value": "0.7848 and 0.9105 and 0.7783"}, {"measurement": "2^ΔΔCт CCNB", "setting": "[3]; [6]", "value": "0.736 and 0.7897 and 1.003"}, {"measurement": "2^ΔΔCт CCND1", "setting": "[3]; CCND1, 4uM, Repeat 1-3, relative to NC = 1", "value": "0.8337 and 1.076 and 0.8297"}, {"measurement": "2^ΔΔCт CCND1", "setting": "[3]; CCND1, 8uM, Repeat 1-3, relative to NC = 1", "value": "0.7172 and 1.068 and 0.8923"}, {"measurement": "2^ΔΔCт CCND1", "setting": "[3]; CCND1, 12uM, Repeat 1-3, relative to NC = 1", "value": "0.6074 and 0.7441 and 0.7112"}, {"measurement": "2^ΔΔCт", "setting": "[3]; CCND1, 12uM, normalized to WT (NC), run 20201020-2", "value": 0.7112}, {"measurement": "RQ", "setting": "[3]; CCND1 mRNA, 4uM", "value": 0.8297}, {"measurement": "RQ", "setting": "[3]; CCND1 mRNA, 8uM", "value": 0.8923}, {"measurement": "RQ", "setting": "[3]; CCND1 mRNA, 12uM", "value": 0.7112}, {"measurement": "2^ΔΔCт CDK2", "setting": "[3]; CDK2, 4uM, Repeat 1-3, relative to NC = 1", "value": "1.17 and 1.2056 and 1.028"}]}
